Assay results as given in patent US11427549B2, “Pyrimidinyloxy benzo-fused compounds as herbicides” (FMC Corporation, priority 2017, dated 2022).

How the values were obtained:
[1] = system: barnyardgrass (Echinochloa crus-galli); experiment: Test A preemergence, barnyardgrass; assay type: in vivo; conditions: Echinochloa crus-galli, pre-emergence, 240 h, 0 to 100 scale (0 no effect, 100 complete control), read-out: Plant response rating, Barnyardgrass; for pest or weed control at 31 g/ha: 31 g ai/ha; for pest or weed control at 125 g/ha: 125 g ai/ha
[2] = system: kochia (Kochia scoparia); experiment: Test A preemergence, kochia; assay type: in vivo; conditions: Bassia scoparia, pre-emergence, 240 h, 0 to 100 scale (0 no effect, 100 complete control), read-out: Plant response rating, Kochia; for pest or weed control at 31 g/ha: 31 g ai/ha; for pest or weed control at 125 g/ha: 125 g ai/ha
[3] = system: ragweed (common ragweed, Ambrosia elatior); experiment: Test A preemergence, ragweed; assay type: in vivo; conditions: Ambrosia artemisiifolia, pre-emergence, 240 h, 0 to 100 scale (0 no effect, 100 complete control), read-out: Plant response rating, Ragweed; for pest or weed control at 31 g/ha: 31 g ai/ha; for pest or weed control at 125 g/ha: 125 g ai/ha
[4] = system: ryegrass, Italian (Italian ryegrass, Lolium multiflorum); experiment: Test A preemergence, ryegrass, Italian; assay type: in vivo; conditions: Lolium multiflorum, pre-emergence, 240 h, 0 to 100 scale (0 no effect, 100 complete control), read-out: Plant response rating, Ryegrass, Italian; for pest or weed control at 31 g/ha: 31 g ai/ha; for pest or weed control at 125 g/ha: 125 g ai/ha
[5] = system: pigweed (Amaranthus retroflexus); experiment: Test A preemergence, pigweed; assay type: in vivo; conditions: Amaranthus retroflexus, pre-emergence, 240 h, 0 to 100 scale (0 no effect, 100 complete control), read-out: Plant response rating, Pigweed; for pest or weed control at 31 g/ha: 31 g ai/ha; for pest or weed control at 125 g/ha: 125 g ai/ha
[6] = system: barnyardgrass (Echinochloa crus-galli); experiment: Test A postemergence, barnyardgrass; assay type: in vivo; conditions: Echinochloa crus-galli, post-emergence, 240 h, 0 to 100 scale (0 no effect, 100 complete control), read-out: Plant response rating, Barnyardgrass; for pest or weed control at 31 g/ha: 31 g ai/ha; for pest or weed control at 125 g/ha: 125 g ai/ha
[7] = system: kochia (Kochia scoparia); experiment: Test A postemergence, kochia; assay type: in vivo; conditions: Bassia scoparia, post-emergence, 240 h, 0 to 100 scale (0 no effect, 100 complete control), read-out: Plant response rating, Kochia; for pest or weed control at 31 g/ha: 31 g ai/ha; for pest or weed control at 125 g/ha: 125 g ai/ha
[8] = system: ragweed (common ragweed, Ambrosia elatior); experiment: Test A postemergence, ragweed; assay type: in vivo; conditions: Ambrosia artemisiifolia, post-emergence, 240 h, 0 to 100 scale (0 no effect, 100 complete control), read-out: Plant response rating, Ragweed; for pest or weed control at 31 g/ha: 31 g ai/ha; for pest or weed control at 125 g/ha: 125 g ai/ha
[9] = system: ryegrass, Italian (Italian ryegrass, Lolium multiflorum); experiment: Test A postemergence, ryegrass, Italian; assay type: in vivo; conditions: Lolium multiflorum, post-emergence, 240 h, 0 to 100 scale (0 no effect, 100 complete control), read-out: Plant response rating, Ryegrass, Italian; for pest or weed control at 31 g/ha: 31 g ai/ha; for pest or weed control at 125 g/ha: 125 g ai/ha
[10] = system: pigweed (Amaranthus retroflexus); experiment: Test A postemergence, pigweed; assay type: in vivo; conditions: Amaranthus retroflexus, post-emergence, 240 h, 0 to 100 scale (0 no effect, 100 complete control), read-out: Plant response rating, Pigweed; for pest or weed control at 31 g/ha: 31 g ai/ha; for pest or weed control at 125 g/ha: 125 g ai/ha
[11] = system: wheat (Triticum aestivum); experiment: Test A postemergence, wheat; assay type: in vivo; conditions: Triticum aestivum, post-emergence, 240 h, 0 to 100 scale (0 no effect, 100 complete control), read-out: Plant response rating, Wheat; for plant injury at 31 g/ha: 31 g ai/ha; for plant injury at 125 g/ha: 125 g ai/ha
[12] = system: corn (Zea mays); experiment: Test A postemergence, corn; assay type: in vivo; conditions: Zea mays, post-emergence, 240 h, 0 to 100 scale (0 no effect, 100 complete control); for Corn plant response rating (crop injury, 0 = no effect, 100 = complete kill) at 31 g/ha: 31 g ai/ha; for Corn plant response rating (crop injury, 0 = no effect, 100 = complete kill) at 125 g/ha: 125 g ai/ha
[13] = system: blackgrass (Alopecurus myosuroides); experiment: Test A postemergence, blackgrass; assay type: in vivo; conditions: Alopecurus myosuroides, post-emergence, 240 h, 0 to 100 scale (0 no effect, 100 complete control), read-out: Plant response rating, Blackgrass; for pest or weed control at 31 g/ha: 31 g ai/ha; for pest or weed control at 125 g/ha: 125 g ai/ha
[14] = system: galium (catchweed bedstraw, Galium aparine); experiment: Test A postemergence, galium; assay type: in vivo; conditions: Galium, post-emergence, 240 h, 0 to 100 scale (0 no effect, 100 complete control), read-out: Plant response rating, Galium; for pest or weed control at 31 g/ha: 31 g ai/ha; for pest or weed control at 125 g/ha: 125 g ai/ha
[15] = system: rice (Oryza sativa); experiment: Test B flooded paddy test, rice; conditions: Oryza sativa, read-out: Plant response rating, Rice (0 to 100 scale, 0 is no effect, 100 is complete control)
[16] = system: ducksalad (Heteranthera limosa); experiment: Test B flooded paddy test, ducksalad; conditions: Heteranthera limosa, read-out: Plant response rating, Ducksalad (0 to 100 scale, 0 is no effect, 100 is complete control)
[17] = system: barnyardgrass (Echinochloa crus-galli); experiment: Test B flooded paddy test, barnyardgrass; conditions: Echinochloa crus-galli, read-out: Plant response rating, Barnyardgrass (0 to 100 scale, 0 is no effect, 100 is complete control)

SMILES	pest or weed control at 31 g/ha [1] [%]	pest or weed control at 125 g/ha [1] [%]	pest or weed control at 31 g/ha [2] [%]	pest or weed control at 125 g/ha [2] [%]	pest or weed control at 31 g/ha [3] [%]	pest or weed control at 125 g/ha [3] [%]	pest or weed control at 31 g/ha [4] [%]	pest or weed control at 125 g/ha [4] [%]	pest or weed control at 31 g/ha [5] [%]	pest or weed control at 125 g/ha [5] [%]	pest or weed control at 31 g/ha [6] [%]	pest or weed control at 125 g/ha [6] [%]	pest or weed control at 31 g/ha [7] [%]	pest or weed control at 125 g/ha [7] [%]	pest or weed control at 31 g/ha [8] [%]	pest or weed control at 125 g/ha [8] [%]	pest or weed control at 31 g/ha [9] [%]	pest or weed control at 125 g/ha [9] [%]	pest or weed control at 31 g/ha [10] [%]	pest or weed control at 125 g/ha [10] [%]	further results
FC(F)(F)CC[C@@H]1OCc2cccc(Oc3ncc(Cl)cn3)c21 [Compound 21, 5-Chloro-2-[[(3S)-1,3-dihydro-3-(3,3,3-trifluoropropyl)-4-isobenzofuranyl]oxy]-pyrimidine]	0	20	0	0	0	0	0	0	0	0	0	20	20	60	0	10	0	0	20	50	plant injury at 31 g/ha [11]: 0%; plant injury at 125 g/ha [11]: 0%; Corn plant response rating (crop injury, 0 = no effect, 100 = complete kill) at 31 g/ha [12]: 0%; Corn plant response rating (crop injury, 0 = no effect, 100 = complete kill) at 125 g/ha [12]: 20%; pest or weed control at 31 g/ha [13]: 10%; pest or weed control at 125 g/ha [13]: 30%; pest or weed control at 31 g/ha [14]: 10%; pest or weed control at 125 g/ha [14]: 30%; plant injury at 250 g/ha [15]: 0%; pest or weed control at 250 g/ha [16]: 70%; pest or weed control at 250 g/ha [17]: 0%
O=C1c2cccc(Oc3ncc(Cl)cn3)c2C1CCCC(F)(F)F (stereo not drawn) [Compound 22, 2-[(5-Chloro-2-pyrimidinyl)oxy]-8-(4,4,4-trifluorobutyl)bicyclo[4.2.0]octa-1,3,5-trien-7-one]	0	60	20	80	0	0	0	20	0	30	20	40	40	80	0	20	30	20	30	80	plant injury at 31 g/ha [11]: 0%; plant injury at 125 g/ha [11]: 0%; Corn plant response rating (crop injury, 0 = no effect, 100 = complete kill) at 31 g/ha [12]: 20%; Corn plant response rating (crop injury, 0 = no effect, 100 = complete kill) at 125 g/ha [12]: 30%; pest or weed control at 31 g/ha [13]: 0%; pest or weed control at 125 g/ha [13]: 50%; pest or weed control at 31 g/ha [14]: 50%; pest or weed control at 125 g/ha [14]: 80%; plant injury at 250 g/ha [15]: 0%; pest or weed control at 250 g/ha [16]: 80%; pest or weed control at 250 g/ha [17]: 35%
O=C1OC(CCC(F)(F)F)Cc2c(Oc3ncc(Cl)cn3)cccc21 (stereo not drawn) [Compound 23, 5-[(5-Chloro-2-pyrimidinyl)oxy]-3,4-dihydro-3-(3,3,3-trifluoropropyl)-1H-2-benzopyran-1-one]	0	30	0	60	0	0	0	0	20	100	20	20	20	70	0	10	0	0	60	70	plant injury at 31 g/ha [11]: 20%; plant injury at 125 g/ha [11]: 30%; Corn plant response rating (crop injury, 0 = no effect, 100 = complete kill) at 31 g/ha [12]: 10%; Corn plant response rating (crop injury, 0 = no effect, 100 = complete kill) at 125 g/ha [12]: 20%; pest or weed control at 31 g/ha [13]: 20%; pest or weed control at 125 g/ha [13]: 30%; pest or weed control at 31 g/ha [14]: 40%; pest or weed control at 125 g/ha [14]: 70%; plant injury at 250 g/ha [15]: 0%; pest or weed control at 250 g/ha [16]: 0%; pest or weed control at 250 g/ha [17]: 0%
